Measured values from patent publication US8192962B2, “Processes for detecting toxic substances” (Daikin Industries, Ltd., priority 2001, dated 2012).

Test system: Energy system protein genes
Assay: DNA chip mRNA expression in yeast, energy system protein genes (Table 4)
Type: cell-based, Saccharomyces cerevisiae S288C
How it was run: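 Cells were grown at 25° C. in YPD, treated at logarithmic phase for 2 h with a chemical at a concentration inhibiting growth but not causing death, and compared with untreated cultures. Labeled cDNA was hybridized to a DNA chip carrying all yeast genes, and the expression ratio was taken from scanner fluorescence.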

With `O=[N+]([O-])c1cc[n+]([O-])c2ccccc12` [(5), 4-nitroquinolin-N-oxide] the “The level of expressed mRNA in the presence of chemical substance/The level of expressed mRNA in the absence of chemical substance” value (yeast gene YJR009C) was 1.2, the “The level of expressed mRNA in the presence of chemical substance/The level of expressed mRNA in the absence of chemical substance” value (yeast gene YJR048W) was 0.8 and the “The level of expressed mRNA in the presence of chemical substance/The level of expressed mRNA in the absence of chemical substance” value (yeast gene YJR121W, cells incubated two hours with the chemical substance) was 0.8. The “The level of expressed mRNA in the presence of chemical substance/The level of expressed mRNA in the absence of chemical substance” value (yeast gene YJR155W) was 0.7, the “The level of expressed mRNA in the presence of chemical substance/The level of expressed mRNA in the absence of chemical substance” value (yeast gene YKL016C, cells incubated two hours with the chemical substance) was 1.5 and the “The level of expressed mRNA in the presence of chemical substance/The level of expressed mRNA in the absence of chemical substance” value (yeast gene YKL060C, cells incubated two hours with the chemical substance) was 1.6. For the same compound, the “The level of expressed mRNA in the presence of chemical substance/The level of expressed mRNA in the absence of chemical substance” value (yeast gene YKL141W, cells incubated two hours with the chemical substance) was 1.5, the “The level of expressed mRNA in the presence of chemical substance/The level of expressed mRNA in the absence of chemical substance” value (yeast gene YKL148C, cells incubated two hours with the chemical substance) was 0.8 and the “The level of expressed mRNA in the presence of chemical substance/The level of expressed mRNA in the absence of chemical substance” value (yeast gene YKR009C, cells incubated two hours with the chemical substance) was 1.0. For the same compound, the “The level of expressed mRNA in the presence of chemical substance/The level of expressed mRNA in the absence of chemical substance” value (yeast gene YKR058W, cells incubated two hours with the chemical substance, 25° C., YPD medium) was 0.8, the “The level of expressed mRNA in the presence of chemical substance/The level of expressed mRNA in the absence of chemical substance” value (yeast gene YKR097W) was 1.1 and the “The level of expressed mRNA in the presence of chemical substance/The level of expressed mRNA in the absence of chemical substance” value (yeast gene YLL041C, cells incubated two hours with the chemical substance) was 1.6. The “The level of expressed mRNA in the presence of chemical substance/The level of expressed mRNA in the absence of chemical substance” value (yeast gene YLR038C, cells incubated two hours with the chemical substance) was 1.8, the “The level of expressed mRNA in the presence of chemical substance/The level of expressed mRNA in the absence of chemical substance” value (yeast gene YLR044C, cells incubated two hours with the chemical substance) was 1.7 and the “The level of expressed mRNA in the presence of chemical substance/The level of expressed mRNA in the absence of chemical substance” value (yeast gene YLR134W, cells incubated two hours with the chemical substance) was 1.3. The “The level of expressed mRNA in the presence of chemical substance/The level of expressed mRNA in the absence of chemical substance” value (yeast gene YLR258W, cells incubated two hours with the chemical substance) was 0.9, the “The level of expressed mRNA in the presence of chemical substance/The level of expressed mRNA in the absence of chemical substance” value (yeast gene YLR284C, cells incubated two hours with the chemical substance) was 1.6 and the “The level of expressed mRNA in the presence of chemical substance/The level of expressed mRNA in the absence of chemical substance” value (yeast gene YLR295C, cells incubated two hours with the chemical substance, 25° C., YPD medium) was 2.2. The “The level of expressed mRNA in the presence of chemical substance/The level of expressed mRNA in the absence of chemical substance” value (yeast gene YLR304C, cells incubated two hours with the chemical substance) was 0.6, the “The level of expressed mRNA in the presence of chemical substance/The level of expressed mRNA in the absence of chemical substance” value (yeast gene YLR345W) was 1.2 and the “The level of expressed mRNA in the presence of chemical substance/The level of expressed mRNA in the absence of chemical substance” value (yeast gene YLR354C, cells incubated two hours with the chemical substance) was 1.6. For the same compound, the “The level of expressed mRNA in the presence of chemical substance/The level of expressed mRNA in the absence of chemical substance” value (yeast gene YLR377C, cells incubated two hours with the chemical substance) was 1.0, the “The level of expressed mRNA in the presence of chemical substance/The level of expressed mRNA in the absence of chemical substance” value (yeast gene YLR395C, cells incubated two hours with the chemical substance) was 0.7 and the “The level of expressed mRNA in the presence of chemical substance/The level of expressed mRNA in the absence of chemical substance” value (yeast gene YML087C) was 0.9. The “The level of expressed mRNA in the presence of chemical substance/The level of expressed mRNA in the absence of chemical substance” value (yeast gene YML120C, cells incubated two hours with the chemical substance) was 0.6, the “The level of expressed mRNA in the presence of chemical substance/The level of expressed mRNA in the absence of chemical substance” value (yeast gene YML129C, cells incubated two hours with the chemical substance) was 1.7 and the “The level of expressed mRNA in the presence of chemical substance/The level of expressed mRNA in the absence of chemical substance” value (yeast gene YMR073C, cells incubated two hours with the chemical substance) was 0.8. For the same compound, the “The level of expressed mRNA in the presence of chemical substance/The level of expressed mRNA in the absence of chemical substance” value (yeast gene YMR118C) was 1.2, the “The level of expressed mRNA in the presence of chemical substance/The level of expressed mRNA in the absence of chemical substance” value (yeast gene YMR205C, cells incubated two hours with the chemical substance) was 1.2 and the “The level of expressed mRNA in the presence of chemical substance/The level of expressed mRNA in the absence of chemical substance” value (yeast gene YMR261C, cells incubated two hours with the chemical substance) was 0.9. The “The level of expressed mRNA in the presence of chemical substance/The level of expressed mRNA in the absence of chemical substance” value (yeast gene YMR267W, cells incubated two hours with the chemical substance, 25° C., YPD medium) was 1.0, the “The level of expressed mRNA in the presence of chemical substance/The level of expressed mRNA in the absence of chemical substance” value (yeast gene YMR323W, cells incubated two hours with the chemical substance) was 0.7 and the “The level of expressed mRNA in the presence of chemical substance/The level of expressed mRNA in the absence of chemical substance” value (yeast gene YNL071W) was 0.6. The “The level of expressed mRNA in the presence of chemical substance/The level of expressed mRNA in the absence of chemical substance” value (yeast gene YNL202W, cells incubated two hours with the chemical substance) was 0.9, the “The level of expressed mRNA in the presence of chemical substance/The level of expressed mRNA in the absence of chemical substance” value (yeast gene YNL241C) was 0.8 and the “The level of expressed mRNA in the presence of chemical substance/The level of expressed mRNA in the absence of chemical substance” value (yeast gene YNL331C) was 1.6. For the same compound, the “The level of expressed mRNA in the presence of chemical substance/The level of expressed mRNA in the absence of chemical substance” value (yeast gene YOL086C, cells incubated two hours with the chemical substance) was 1.9, the “The level of expressed mRNA in the presence of chemical substance/The level of expressed mRNA in the absence of chemical substance” value (yeast gene YOL165C) was 0.9 and the “The level of expressed mRNA in the presence of chemical substance/The level of expressed mRNA in the absence of chemical substance” value (yeast gene YOR142W, cells incubated two hours with the chemical substance) was 1.4. The “The level of expressed mRNA in the presence of chemical substance/The level of expressed mRNA in the absence of chemical substance” value (yeast gene YOR178C, cells incubated two hours with the chemical substance) was 1.0, the “The level of expressed mRNA in the presence of chemical substance/The level of expressed mRNA in the absence of chemical substance” value (yeast gene YOR388C, cells incubated two hours with the chemical substance) was 1.3 and the “The level of expressed mRNA in the presence of chemical substance/The level of expressed mRNA in the absence of chemical substance” value (yeast gene YPL031C, cells incubated two hours with the chemical substance) was 1.5. For the same compound, the “The level of expressed mRNA in the presence of chemical substance/The level of expressed mRNA in the absence of chemical substance” value (yeast gene YPL061W, cells incubated two hours with the chemical substance) was 1.6, the “The level of expressed mRNA in the presence of chemical substance/The level of expressed mRNA in the absence of chemical substance” value (yeast gene YPL088W) was 1.5 and the “The level of expressed mRNA in the presence of chemical substance/The level of expressed mRNA in the absence of chemical substance” value (yeast gene YPL171C) was 1.1. For the same compound, the “The level of expressed mRNA in the presence of chemical substance/The level of expressed mRNA in the absence of chemical substance” value (yeast gene YPL240C) was 1.3, the “The level of expressed mRNA in the presence of chemical substance/The level of expressed mRNA in the absence of chemical substance” value (yeast gene YPL262W, cells incubated two hours with the chemical substance) was 0.6 and the “The level of expressed mRNA in the presence of chemical substance/The level of expressed mRNA in the absence of chemical substance” value (yeast gene YPL275W, cells incubated two hours with the chemical substance) was 1.2. For the same compound, the “The level of expressed mRNA in the presence of chemical substance/The level of expressed mRNA in the absence of chemical substance” value (yeast gene YPL276W, cells incubated two hours with the chemical substance) was 1.5, the “The level of expressed mRNA in the presence of chemical substance/The level of expressed mRNA in the absence of chemical substance” value (yeast gene YPR048W, cells incubated two hours with the chemical substance) was 0.9 and the “The level of expressed mRNA in the presence of chemical substance/The level of expressed mRNA in the absence of chemical substance” value (yeast gene YPR184W, cells incubated two hours with the chemical substance) was 0.9.
